Experimental data as given in patent publication US20250042857A1, “SOS1 Inhibitor With Pyrido-Fused Six-Membered Ring Structure” (HAIHE BIOPHARMA CO., LTD., priority 2021, published 2025).

Key:
[1] = molecular target: KRAS-G12C/SOS1 (Homo sapiens (Human), UniProt Q07889); assay: Detection of inhibitory effects of compounds on KRAS-G12C/SOS1 (KRASG12C/SOS binding kit, HTRF); conditions: Em665/620, read-out: IC50, inhibitory activity on interaction of KRAS-G12C/SOS1
How it was run: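 HTRF binding of Tag2-KRAS-G12C to Tag1-SOS1 with compounds (10-point 3-fold dilution from 5,000 nM) for 15 min at room temperature, then anti-Tag1-Tb and anti-Tag2-XL665 for 120 min at 4° C. Em665/620 read; inhibition normalised to control wells, IC50 from variable-slope log(inhibitor) fit.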

[2] = system: p-ERK of PC-9 cells; assay: p-ERK HTRF assay in PC-9 cells; assay type: cell-based; conditions: Homo sapiens, PC-9, 1 h, PC-9 lung cancer cells, 1 hour treatment, read-out: IC50, inhibitory activity on p-ERK of PC-9 cells
How it was run: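 PC-9 lung cancer cells plated overnight, then exposed 1 h at 37 °C to a 10-point compound series (10,000–[…] nM final, 0.1% DMSO). After 1 h lysis, phospho-ERK1/2 (Thr202/Tyr204) measured by HTRF at 665/615 nm. Percent inhibition calculated from max and min signals.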

Chain of KRAS-G12C/SOS1 (Q07889 whole entry, stated change not applied): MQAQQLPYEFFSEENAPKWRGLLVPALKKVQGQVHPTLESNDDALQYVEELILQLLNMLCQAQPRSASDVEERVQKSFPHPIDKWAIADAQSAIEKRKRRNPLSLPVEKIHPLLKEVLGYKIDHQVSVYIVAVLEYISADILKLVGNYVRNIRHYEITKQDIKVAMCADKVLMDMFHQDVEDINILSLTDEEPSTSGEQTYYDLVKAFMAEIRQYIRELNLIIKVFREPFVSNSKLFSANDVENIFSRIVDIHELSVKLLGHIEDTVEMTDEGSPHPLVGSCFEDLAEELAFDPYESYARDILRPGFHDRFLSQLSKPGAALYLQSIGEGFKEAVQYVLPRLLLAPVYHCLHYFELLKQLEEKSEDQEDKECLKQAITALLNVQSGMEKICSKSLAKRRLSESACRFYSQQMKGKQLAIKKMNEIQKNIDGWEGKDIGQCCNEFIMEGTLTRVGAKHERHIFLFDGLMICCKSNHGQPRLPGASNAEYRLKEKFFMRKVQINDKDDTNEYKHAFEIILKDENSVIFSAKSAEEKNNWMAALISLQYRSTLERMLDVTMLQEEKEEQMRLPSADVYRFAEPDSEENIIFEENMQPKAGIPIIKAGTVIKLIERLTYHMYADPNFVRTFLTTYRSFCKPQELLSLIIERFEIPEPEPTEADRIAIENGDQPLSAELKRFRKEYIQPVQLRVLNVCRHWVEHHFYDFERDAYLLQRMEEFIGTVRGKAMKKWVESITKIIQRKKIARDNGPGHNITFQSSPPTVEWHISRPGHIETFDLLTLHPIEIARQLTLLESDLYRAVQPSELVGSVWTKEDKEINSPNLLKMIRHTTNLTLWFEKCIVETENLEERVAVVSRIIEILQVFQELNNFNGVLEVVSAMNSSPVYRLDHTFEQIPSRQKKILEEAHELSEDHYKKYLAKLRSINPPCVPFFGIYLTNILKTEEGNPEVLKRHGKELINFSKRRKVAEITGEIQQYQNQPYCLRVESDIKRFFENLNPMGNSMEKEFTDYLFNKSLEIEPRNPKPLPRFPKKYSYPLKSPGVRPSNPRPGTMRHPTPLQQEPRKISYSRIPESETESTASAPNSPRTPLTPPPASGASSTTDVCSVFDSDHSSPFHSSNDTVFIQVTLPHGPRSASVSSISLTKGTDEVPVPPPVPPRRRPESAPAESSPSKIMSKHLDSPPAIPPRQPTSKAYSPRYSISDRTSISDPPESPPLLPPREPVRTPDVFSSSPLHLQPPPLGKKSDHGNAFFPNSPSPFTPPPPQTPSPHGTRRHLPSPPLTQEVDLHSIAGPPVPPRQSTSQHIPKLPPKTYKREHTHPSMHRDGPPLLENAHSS

| IC50 [1] [µM] | IC50 [2] [µM] | Compound |
| --- | --- | --- |
| ≤ 0.1 | ≤ 0.3 | CC(=O)N1CCC(c2cc3c(N[C@H](C)c4cccc(C(F)F)c4F)ccnc3cn2)CC1 [Compound B-4] |
| ≤ 0.1 | ≤ 0.3 | CC(=O)N1CC=C(c2cc3c(N[C@H](C)c4cccc(C(F)F)c4F)ccnc3cn2)CC1 [Compound B-3] |
| ≤ 0.1 | ≤ 0.3 | C[C@@H](Nc1ccnc2cnc(C3(O)CCN(C(=O)NCCO)CC3)cc12)c1cccc(C(F)F)c1F [Compound B-163] |
| ≤ 0.1 | ≤ 0.3 | CC(=O)N[C@@H]1CCN(c2cc3c(N[C@H](C)c4cccc(C(F)F)c4F)ccnc3cn2)C1 [Compound B-32] |
| ≤ 0.1 | > 1 | C[C@@H](Nc1ccnc2cnc(C3(O)CCN(C(=O)CN4CC[C@H](O)C4)CC3)cc12)c1cccc(C(F)F)c1F [Compound B-151] |
| ≤ 0.1 | 0.3 to 1 | C[C@@H](Nc1ccnc2cnc(C3(O)CCS(=O)(=O)CC3)cc12)c1cccc(C(F)F)c1F [Compound B-91] |
| ≤ 0.1 | > 1 | C[C@@H](Nc1ccnc2cnc(C3(O)CCN(C(=O)[C@@H]4CNCCO4)CC3)cc12)c1cccc(C(F)F)c1F [Compound B-137] |
| ≤ 0.1 | ≤ 0.3 | C[C@H](O)C(=O)N1CCC(O)(c2cc3c(N[C@H](C)c4cccc(C(F)(F)F)c4F)ccnc3cn2)CC1 [Compound B-126] |
| ≤ 0.1 | ≤ 0.3 | C[C@@H](Nc1ccnc2cnc(C3(O)CCN(C(=O)C[C@@H]4CCOC4)CC3)cc12)c1cccc(C(F)F)c1F [Compound B-140] |

| Compound | IC50 [1] [µM] | IC50 [2] [µM] |
| --- | --- | --- |
| C[C@@H](Nc1ccnc2cnc(C3(O)CCN(Cc4ccccn4)CC3)cc12)c1cccc(C(F)F)c1F [Compound B-159] | ≤ 0.1 | 0.3 to 1 |
